Experimental data: paper PMC10960024, “Diindoles produced from commensal microbiota metabolites function as endogenous CAR/Nr1i3 ligands” (Nature Communications, 2024)
Where “and” joins values, the source holds several entries; their conditions need not be identical. Equal entries are not always repeated. Values belong to the molecule of their own block, whether it stands above or below them.

Tests used:
[1] = Liver histology (H&E); format: in vivo; settings: mouse, in vivo
Experimental: 12–15 week-old C57BL/6 J mice were obtained from Jackson Laboratories and were housed on a standard 12 h light/dark cycle. Nr1i3^−/− mice with C57BL/6 J background were obtained from David Moore’s lab (PMID: 11057673) at Baylor College of Medicine, and used at 13–26 weeks of age. Wild-type male, female and Nr1i3^−/− male mice were used in this study, due to known sex-specific CAR activities. Mice were housed in groups of 2–5 mice per cage on a standard 12 h light/dark cycle and fed with rodent chow diet (Inotiv, Teklad rodent diet 2918). Temperature was maintained at 21 °C with a range of 21–24 °C and humidity at 16–51%. National Institute of Health guidelines for the care and use of laboratory animals were followed with all experiments performed as directed by the Institutional Animal Care and Use Committee at the University of Illinois, Urbana-Champaign (UIUC, IACUC protocol: 22183). Mice were acclimatized to the UIUC mouse facility for 2 weeks prior to experiments. DIM and DIE were dissolved in 5% DMSO in corn oil and injected intraperitoneally at 25 mg/kg once daily for three days. After 4 h of the third injection, mice were sacrificed to collect serum, livers and intestines. TCPOBOP was dissolved in corn oil and injected intraperitoneally at 3 mg/kg once and the livers collected after 3 days for further studies. When used to block CAR activity, 100 mg/kg androstenol was injected intraperitoneally 15 min prior to the first DIM or DIE treatment. RNA from mice livers was isolated using TRIzol (Invitrogen) reagent using the manufacturer’s instructions. 3–5 µg of RNA was used to synthesize cDNA with random primers (NEBioLabs) and Maxima Reverse Transcriptase kits (Thermo Fisher Scientific). cDNA was further diluted, and 50 ng was used for SYBR green (Thermo Fisher Scientific) based qRT-PCR. Relative gene expression was calculated by the delta Ct method and normalized to 36b4 levels as loading controls. qPCR primers for gene expression analysis are listed in Supplementary Table 3. […]

[2] = tested on: mCAR target genes (cyp2b10, cyp3a11, sult2a1) in mouse liver; assay: qPCR of mCAR target genes in mouse liver after intraperitoneal treatment; format: in vivo
Experimental: (§1) 12–15 week-old C57BL/6 J mice were obtained from Jackson Laboratories and were housed on a standard 12 h light/dark cycle. Nr1i3^−/− mice with C57BL/6 J background were obtained from David Moore’s lab (PMID: 11057673) at Baylor College of Medicine, and used at 13–26 weeks of age. Wild-type male, female and Nr1i3^−/− male mice were used in this study, due to known sex-specific CAR activities. Mice were housed in groups of 2–5 mice per cage on a standard 12 h light/dark cycle and fed with rodent chow diet (Inotiv, Teklad rodent diet 2918). Temperature was maintained at 21 °C with a range of 21–24 °C and humidity at 16–51%. National Institute of Health guidelines for the care and use of laboratory animals were followed with all experiments performed as directed by the Institutional Animal Care and Use Committee at the University of Illinois, Urbana-Champaign (UIUC, IACUC protocol: 22183). Mice were acclimatized to the UIUC mouse facility for 2 weeks prior to experiments. DIM and DIE were dissolved in 5% DMSO in corn oil and injected intraperitoneally at 25 mg/kg once daily for three days. After 4 h of the third injection, mice were sacrificed to collect serum, livers and intestines. TCPOBOP was dissolved in corn oil and injected intraperitoneally at 3 mg/kg once and the livers collected after 3 days for further studies. When used to block CAR activity, 100 mg/kg androstenol was injected intraperitoneally 15 min prior to the first DIM or DIE treatment. RNA from mice livers was isolated using TRIzol (Invitrogen) reagent using the manufacturer’s instructions. 3–5 µg of RNA was used to synthesize cDNA with random primers (NEBioLabs) and Maxima Reverse Transcriptase kits (Thermo Fisher Scientific). cDNA was further diluted, and 50 ng was used for SYBR green (Thermo Fisher Scientific) based qRT-PCR. Relative gene expression was calculated by the delta Ct method and normalized to 36b4 levels as loading controls. qPCR primers for gene expression analysis are listed in Supplementary Table 3.

[3] = biological target: T1, hCAR LBD-SRC1 protein (Homo sapiens, UniProt Q14994); assay: Fluorescence thermal shift assay (TSA); format: binding; settings: for stabilization of CAR-LBD-SRC1 fusion (thermal stability): dose-response 0.4-50 µM; for Tm: diindoles at 12.5 µM, APO Tm 51.5 °C, means of triplicates
T1 construct: The human CAR LBD (Lys^108 – Ser^352) was amplified by PCR from cDNA; HIS6; made in house; host or cells: E. coli BL21(DE3)
T1 sequence (Q14994 108-352): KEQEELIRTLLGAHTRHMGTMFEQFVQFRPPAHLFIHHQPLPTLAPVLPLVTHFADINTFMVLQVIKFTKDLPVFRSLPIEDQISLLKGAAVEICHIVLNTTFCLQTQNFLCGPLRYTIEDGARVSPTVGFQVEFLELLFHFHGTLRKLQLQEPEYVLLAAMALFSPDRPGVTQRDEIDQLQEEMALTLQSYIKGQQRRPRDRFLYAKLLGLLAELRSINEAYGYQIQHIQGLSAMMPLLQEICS
Experimental: Purified hCAR LBD-SRC1 protein was assayed in 137 mM NaCl, 2.7 mM KCl, 10 mM Na2HPO4, and 1.8 mM KH2PO4, 0.5% DMSO, pH 7.4, at a final concentration of 2.2 µM. SYPRO Orange was used at a final concentration of 10× (Invitrogen, S6650). Each sample was divided into three 25 µL replicates. Sample solutions were dispensed into 96-well optical reaction plates (Thermo Fisher Scientific, 4306737) and sealed with optical PCR plate sheets (Thermo Fisher Scientific, AB-1170). TSA experiments were carried out using a QuantStudio 12 K Flex Real Time PCR System (Applied Biosystems). The temperature was ramped up from 25 °C to 95 °C at a rate of 0.3 °C/min, and SYPRO orange fluorescence monitored. Raw fluorescence data and melting temperatures were determined using nonlinear regression curve fitting using GraphPad Prism 9.

[4] = biological target: T2, GST-hCAR-LBD (Homo sapiens, UniProt Q14994); assay: LanthaScreen TR-FRET PGC1α coactivator recruitment assay; format: biochemical
T2 construct: GST-hCAR-LBD (5 nM), terbium-labeled anti-GST antibody (5 nM); purchased Invitrogen A15141
T2 sequence (Q14994 109-352 limits assumed): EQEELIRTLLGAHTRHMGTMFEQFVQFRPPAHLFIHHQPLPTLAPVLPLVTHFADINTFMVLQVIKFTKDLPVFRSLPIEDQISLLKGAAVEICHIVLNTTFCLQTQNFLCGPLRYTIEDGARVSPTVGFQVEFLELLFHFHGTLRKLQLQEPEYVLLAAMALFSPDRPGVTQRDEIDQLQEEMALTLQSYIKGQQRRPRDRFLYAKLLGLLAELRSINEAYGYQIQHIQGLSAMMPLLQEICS
Experimental: LanthaScreen^TM TR-FRET hCAR coactivator assays were performed according to manufacturer’s instructions (Invitrogen, A15141). Test compounds were incubated for 2 h at room temperature with GST-hCAR-LBD (5 nM), terbium-labeled anti-GST antibody (5 nM), and Fluorescein-PGC1α coactivator peptide (125 nM). Incubations were performed in four technical replicates. TR-FRET emissions were measured using a Tecan Infinite F200 Fluorescence Microplate Reader. Results were expressed as the ratio of fluorescence intensity at 520 nm (fluorescein emission excited by terbium emissions) and 495 nm (terbium emissions).

[5] = biological target: T3, hCAR (Homo sapiens, UniProt Q14994); assay: Bottom-up HDX-MS of hCAR with ligand; format: binding; settings: 100 µM ligand
T3 construct: The human CAR LBD (Lys^108 – Ser^352) was amplified by PCR from cDNA; HIS6; made in house; host or cells: E. coli BL21(DE3)
T3 sequence (Q14994 108-352): T1 sequence (Q14994 108-352)
Experimental: Human CAR protein was prepared at 10 µM in 100 mM ammonium acetate pH 7.25 and diluted into either equilibration buffer (10 mM phosphate buffer, pH 7.5) or deuterated reaction buffer (10 mM phosphate buffer, 150 mM NaCl, pH 7.5 in D2O). After labeling times of 1, 10 or 30 min at 25 °C, samples were mixed with equal volumes of quench buffer (100 mM phosphate buffer, pH 2.5) at 0 °C. […] HDX-MS was performed using a commercial Waters HDX system (M-class ACQUITY UPLC and Water Cyclic IMS Mass Spectrometer). Leucine enkephalin was used for mass correction, and all time points were carried out in triplicate. Samples were digested using an Enzymate BEH Pepsin column (2.1 × 30 mm, Waters) at 15 °C. Peptides were desalted on an ACQUITY UPLC BEH C18 VanGuard Pre-column (2.1 × 5 mm, Waters) and separated using an ACQUITY UPLC BEH C18 column (100 × 1 mm, Waters). ProteinLynx Global server (PLGS) and DynamX software was used for peptide identification and deuterium uptake analysis, respectively. PyMOL 2.5 was used for structural visualization.

[6] = biological target: T4, GAL4-hCAR LBD (Homo sapiens, UniProt Q14994); assay: HEK293T GAL4-hCAR dual transfection reporter assay with PK11195 (antagonist displacement); format: cell-based; settings: for HEK293 GAL4-hCAR EC50: basal reporter activity reduced with 1 µM PK11195
T4 construct: chimeric yeast GAL4 DBD fused to an hCAR LBD; expressed in transfected cells; host or cells: HEK293T (ATCC, CRL-3216)
T4 sequence (Q14994 109-352 limits assumed): T2 sequence (Q14994 109-352 limits assumed)
Source text: The GAL4-hCAR, UAS-Luc, pcDNA-GAL4, pGL4-Renilla-Luc and pGEM plasmids were generously provided by Dr. David Mangelsdorf. The GAL4-hCAR plasmid encodes a constitutively expressed chimeric yeast GAL4 DBD fused to an hCAR LBD. The UAS-Luc plasmid encodes a Firefly luciferase reporter under the control of a GAL4 response element. The pcDNA plasmid encodes a constitutively expressed GAL4 DBD and was used as a control vector to determine non-specific luminescence in all HEK293T cellular reporter assays. The pGL4-Renilla-Luc plasmid encodes a constitutively expressed Renilla luciferase reporter and was used as a transfection control in the HEK293T cellular reporter assays.
HEK293T cells (ATCC, CRL-3216) were seeded at a density of 40,000 cells per well in white flat-bottom 96-well microplates (Greiner CellStar, 655073) in Dulbecco’s Modified Eagle Medium (DMEM) (2.5 g/l glucose) supplemented with 10% stripped fetal bovine serum with 100 units/ml of penicillin and incubated for 24 h at 37 °C. Transfection was carried out using 0.3 µL/well of Lipofectamine 2000 (Thermo Fisher Scientific, 11668019). Cells were transfected with 10 ng/well of either pcDNA or GAL4-hCAR, 50 ng/well of UAS-Luc, 5 ng/well of pGL4-Renilla-Luc, and 85 ng/well of pGEM for a total of 150 ng/well of DNA. […] Cells were incubated for 16-hours to allow build-up of luciferase and then processed using the Dual-Glo Luciferase Assay System (Promega, E2940) as per the manufacturer’s instructions. Incubations were performed in four technical replicates.

[7] = biological target: T5, His-tagged CAR-LBD-SRC1 fusion protein (Homo sapiens, UniProt Q14994); assay: Isothermal titration calorimetry (ITC); format: binding; settings: 25 °C; ligand 50 μM; mean of two independent experiments
T5 construct: The human CAR LBD (Lys^108 – Ser^352) was amplified by PCR from cDNA; HIS6; made in house; host or cells: E. coli BL21(DE3)
T5 sequence (Q14994 108-352): T1 sequence (Q14994 108-352)
Experimental: Purified hCAR-SRC1 protein (200–250 µM) was dissolved in 120 μL of PBS and supplemented with 0.5% DMSO. All experiments were performed in a MicroCal Auto-iTC200 instrument (Malvern Panalytical, Marlvern, United Kingdom) at 25 °C. Ligands were used at a concentration of 50 μM. Protein was titrated into cells in a series of 19 injections (injection 1 = 0.4 µL, injection 2–19 = 2 µL) 180 s apart. Control experiments performed by injection of the potein into […] yielded insignificant heats of dilution, and heat responses were subtracted. Integrated heat effects were analyzed using Microcal Origin 7 software (Malvern Instruments).

[8] = Liver-to-body weight ratio after treatment; format: in vivo; settings: post-treatment, compared to control
Experimental: as §1

SMILES: C[C@]12CC[C@@H](O)C[C@@H]1CC[C@@H]1[C@@H]2CC[C@]2(C)C=CC[C@@H]12 [And, androstenol, reference compound]
liver histology (H&E) findings [1]: occasional focal inflammation and mild cholangitis
CAR target gene expression after pre-treatment with inverse agonist ([2]; 100 mg/kg i.p. 15 min prior to first DIM or DIE treatment): greatly reduced target gene expression
sult2a1 expression in liver ([2]; WT or Nr1i3-/- mice): did not show significant responses
cyp3a11 expression in liver ([2]; mouse liver, with or without And pre-treatment): increase rather than a decrease

stabilization of CAR-LBD-SRC1 fusion (thermal stability) [3]: preferential stabilization
SMILES: CC(C)(c1ccc(O)cc1)c1ccc(O)cc1 [BPA, bisphenol A, reference compound]

SMILES: Clc1ccc(-c2nc3sccn3c2C=NOCc2ccc(Cl)c(Cl)c2)cc1 [CITCO, 6-(4-chlorophenyl)imidazo[2,1-b][1,3]thiazole-5-carbaldehyde-O-(3,4-dichlorobenzyl)oxime, reference compound]
PGC1α cofactor recruitment [4]: able to increase PGC1α recruitment beyond ‘constitutive’ levels
stabilization of CAR-LBD-SRC1 fusion (thermal stability) [3]: no effect on thermal stability
deuterium uptake change, residues 235–243 (H12/AF2) [5]: decreased deuterium uptake
deuterium uptake difference, amino acids 217–234 (H11) [5]: > 20%
difference in deuterium uptake compared to apo hCAR, amino acids 51–65 (H3) [5]: > 20%

HEK293 GAL4-hCAR EC50 [6]: Ambiguous
Kd [7]: 6000 nM
Tm [3]: 59.1 °C
SMILES: CCC(c1c[nH]c2ccccc12)c1c[nH]c2ccccc12 [DIP, 3,3’-diindolylpropane]

SMILES: Clc1cnc(Oc2ccc(Oc3ncc(Cl)cc3Cl)cc2)c(Cl)c1 [TCPOBOP, 1,4-bis-[2-(3,5,-dichloropyridyloxy)] benzene, reference compound]
liver weight / liver-to-body weight ratio [8]: significantly increased
mCAR target gene activation ([2]; WT male mice, 3 mg/kg i.p. once, livers after 3 days): highly activate mCAR target genes

HEK293 GAL4-hCAR EC50 [6]: Ambiguous
Tm [3]: 58.3 °C
SMILES: CC(C)C(c1c[nH]c2ccccc12)c1c[nH]c2ccccc12 [iDIB, 3,3’-diindolyl-iso-butane]

EC50 ([6]; read-out: HEK293 GAL4-hCAR EC50): 2360 nM
Kd [7]: 790 nM and 780 nM
Tm [3]: 57.7 °C
SMILES: CCCC(c1c[nH]c2ccccc12)c1c[nH]c2ccccc12 [nDIB]
